Assay results: article PMC6548519 (Nature chemical biology, 2019)

How the values were obtained:
FAAH-4 = biological target: T1, FAAH-4 (Caenorhabditis elegans, UniProt Q9U217); type: biochemical
T1 sequence (Q9U217 1-647): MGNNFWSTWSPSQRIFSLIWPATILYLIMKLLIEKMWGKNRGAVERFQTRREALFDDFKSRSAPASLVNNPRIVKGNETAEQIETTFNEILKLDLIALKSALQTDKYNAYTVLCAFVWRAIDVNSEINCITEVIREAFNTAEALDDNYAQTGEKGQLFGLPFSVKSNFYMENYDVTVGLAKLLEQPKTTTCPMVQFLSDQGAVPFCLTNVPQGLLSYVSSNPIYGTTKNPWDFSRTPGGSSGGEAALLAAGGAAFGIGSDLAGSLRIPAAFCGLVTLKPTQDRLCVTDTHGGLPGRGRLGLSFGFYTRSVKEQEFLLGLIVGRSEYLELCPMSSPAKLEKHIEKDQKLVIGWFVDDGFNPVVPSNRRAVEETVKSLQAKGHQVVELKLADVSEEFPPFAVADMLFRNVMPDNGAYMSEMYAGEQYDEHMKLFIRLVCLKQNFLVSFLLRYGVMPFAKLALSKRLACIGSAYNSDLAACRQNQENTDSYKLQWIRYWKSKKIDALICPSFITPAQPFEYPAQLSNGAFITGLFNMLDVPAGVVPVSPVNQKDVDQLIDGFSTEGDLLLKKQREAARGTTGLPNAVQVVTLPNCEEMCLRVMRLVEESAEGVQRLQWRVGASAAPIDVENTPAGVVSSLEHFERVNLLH

FAAH-1 = biological target: T2, FAAH-1 (Caenorhabditis elegans, UniProt Q17449); assay: MS-based competitive ABPP of worms treated in vivo; type: cell-based
T2 sequence (Q17449 15-572): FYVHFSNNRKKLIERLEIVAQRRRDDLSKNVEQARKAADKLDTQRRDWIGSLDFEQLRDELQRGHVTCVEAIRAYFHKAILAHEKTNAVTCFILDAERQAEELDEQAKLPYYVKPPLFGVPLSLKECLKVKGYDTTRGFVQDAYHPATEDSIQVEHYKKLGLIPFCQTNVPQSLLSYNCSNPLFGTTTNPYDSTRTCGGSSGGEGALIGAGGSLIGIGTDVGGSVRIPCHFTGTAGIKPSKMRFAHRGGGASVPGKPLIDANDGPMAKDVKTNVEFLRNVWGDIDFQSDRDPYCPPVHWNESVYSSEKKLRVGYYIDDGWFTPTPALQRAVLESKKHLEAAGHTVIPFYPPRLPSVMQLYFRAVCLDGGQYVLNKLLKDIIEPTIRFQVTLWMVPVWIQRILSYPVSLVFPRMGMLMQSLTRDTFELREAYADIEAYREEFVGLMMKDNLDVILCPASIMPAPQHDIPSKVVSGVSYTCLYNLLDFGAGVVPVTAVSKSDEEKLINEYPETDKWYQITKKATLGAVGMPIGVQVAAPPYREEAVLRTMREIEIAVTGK

O=C(Oc1ccc([N+](=O)[O-])cc1)N1CCC(C(O)(c2ccc3c(c2)OCO3)c2ccc3c(c2)OCO3)CC1 [compound 1, JZL184]
IC50 (FAAH-4): 11 µM

NC(=O)c1cccc(-c2cccc(OC(=O)NC3CCCCC3)c2)c1 [compound 6, URB597]
MS-based competitive ABPP of worms treated in vivo (50 μM) (FAAH-1): URB597 also strongly engaged C. elegans FAAH-1 in vivo
